# Results reported in ChEMBL document CHEMBL3885881, “DrugMatrix”.
# Species: Rattus norvegicus
# Test: DrugMatrix - Regimen: Daily Repeat
# Assay type: toxicity, organism-based, Sprague-Dawley
# Parameters: regimen Daily Repeat, gender Male, age 6-8 weeks
# Conditions: in vivo, po, route oral GAVAGE, […]; for ABSOLUTE BASOPHIL / ABSOLUTE EOSINOPHIL / ABSOLUTE LYMPHOCYTE / ABSOLUTE MONOCYTE / ABSOLUTE SEGMENTED NEUTROPHIL / BASOPHIL / EOSINOPHIL / ERYTHROCYTE COUNT / HEMATOCRIT / HEMOGLOBIN / LEUKOCYTE COUNT / LYMPHOCYTE / MEAN CORPUSCULAR HEMOGLOBIN / MEAN CORPUSCULAR HEMOGLOBIN CONCENTRATION / MEAN CORPUSCULAR VOLUME / MONOCYTE / NEUTROPHIL / NUCLEATED RED BLOOD CELLS / PLATELET COUNT: tissue Blood; for ALANINE AMINOTRANSFERASE / ALBUMIN / ALKALINE PHOSPHATASE / ASPARTATE AMINOTRANSFERASE / BLOOD UREA NITROGEN / CARBON DIOXIDE / CHLORIDE / CHOLESTEROL / CREATINE PHOSPHOKINASE / CREATININE / GLUCOSE / LACTATE DEHYDROGENASE / LIPASE / PHOSPHORUS / POTASSIUM / SODIUM / TOTAL BILIRUBIN / TOTAL PROTEIN / URIC ACID: tissue Plasma
# [1] = 0 mg/kg, 72 h, dose level Control, time 3 day
# [2] = 0 mg/kg, 120 h, dose level Control, time 5 day
# [3] = 10 mg/kg, 72 h, dose level Low, time 3 day
# [4] = 10 mg/kg, 120 h, dose level Low, time 5 day
smiles,measurement,setting,value
C#C[C@]1(O)CC[C@H]2[C@@H]3CCc4cc(O)ccc4[C@H]3CC[C@@]21C [ETHINYL ESTRADIOL],ABSOLUTE BASOPHIL,[1],0 CELLS/uL
same,ABSOLUTE EOSINOPHIL,[1],104.17 CELLS/uL
same,ABSOLUTE LYMPHOCYTE,[1],14547 CELLS/uL
same,ABSOLUTE MONOCYTE,[1],292 CELLS/uL
same,ABSOLUTE SEGMENTED NEUTROPHIL,[1],1640.17 CELLS/uL
same,BASOPHIL,[1],0%
same,EOSINOPHIL,[1],0.67%
same,ERYTHROCYTE COUNT,[1],5.35 x10E6/uL
same,HEMATOCRIT,[1],33.67%
same,HEMOGLOBIN,[1],13.38 G/DL
same,LEUKOCYTE COUNT,[1],16.58 x10E3/uL
same,LYMPHOCYTE,[1],87.5%
same,MEAN CORPUSCULAR HEMOGLOBIN,[1],25.05 pg
same,MEAN CORPUSCULAR HEMOGLOBIN CONCENTRATION,[1],39.78 G/DL
same,MEAN CORPUSCULAR VOLUME,[1],62.97 fL
same,MONOCYTE,[1],1.83%
same,NEUTROPHIL,[1],10%
same,NUCLEATED RED BLOOD CELLS,[1],0 /100WBC
same,PLATELET COUNT,[1],1274.5 x10E3/uL
same,ALANINE AMINOTRANSFERASE,[1],76.83 u/L
same,ALBUMIN,[1],3.97 G/DL
same,ALKALINE PHOSPHATASE,[1],347 u/L
same,ASPARTATE AMINOTRANSFERASE,[1],97.17 u/L
same,BLOOD UREA NITROGEN,[1],14.33 mg/dL
same,CARBON DIOXIDE,[1],25.5 mmol/L
same,CHLORIDE,[1],100.33 MEQ/L
same,CHOLESTEROL,[1],68.67 mg/dL
same,CREATINE PHOSPHOKINASE,[1],659.17 u/L
same,CREATININE,[1],0.32 mg/dL
same,GLUCOSE,[1],160.67 mg/dL
same,LACTATE DEHYDROGENASE,[1],271.5 u/L
same,LIPASE,[1],11.67 u/L
same,PHOSPHORUS,[1],10.65 mg/dL
same,POTASSIUM,[1],5.95 MEQ/L
same,SODIUM,[1],139.65 MEQ/L
same,TOTAL BILIRUBIN,[1],0.2 mg/dL
same,TOTAL PROTEIN,[1],5.72 G/DL
same,URIC ACID,[1],1.37 mg/dL
same,ABSOLUTE BASOPHIL,[2],0 CELLS/uL
same,ABSOLUTE EOSINOPHIL,[2],331.5 CELLS/uL
same,ABSOLUTE LYMPHOCYTE,[2],15021.67 CELLS/uL
same,ABSOLUTE MONOCYTE,[2],376.5 CELLS/uL
same,ABSOLUTE SEGMENTED NEUTROPHIL,[2],3070.33 CELLS/uL
same,BASOPHIL,[2],0%
same,EOSINOPHIL,[2],1.83%
same,ERYTHROCYTE COUNT,[2],5.24 x10E6/uL
same,HEMATOCRIT,[2],33.22%
same,HEMOGLOBIN,[2],13.2 G/DL
same,LEUKOCYTE COUNT,[2],18.8 x10E3/uL
same,LYMPHOCYTE,[2],79.67%
same,MEAN CORPUSCULAR HEMOGLOBIN,[2],25.17 pg
same,MEAN CORPUSCULAR HEMOGLOBIN CONCENTRATION,[2],39.73 G/DL
same,MEAN CORPUSCULAR VOLUME,[2],63.38 fL
same,MONOCYTE,[2],2%
same,NEUTROPHIL,[2],16.5%
same,NUCLEATED RED BLOOD CELLS,[2],0 /100WBC
same,PLATELET COUNT,[2],1142.67 x10E3/uL
same,ALANINE AMINOTRANSFERASE,[2],52.5 u/L
same,ALBUMIN,[2],3.9 G/DL
same,ALKALINE PHOSPHATASE,[2],284.5 u/L
same,ASPARTATE AMINOTRANSFERASE,[2],81.33 u/L
same,BLOOD UREA NITROGEN,[2],16 mg/dL
same,CARBON DIOXIDE,[2],25.33 mmol/L
same,CHLORIDE,[2],99.5 MEQ/L
same,CHOLESTEROL,[2],74.83 mg/dL
same,CREATINE PHOSPHOKINASE,[2],448.33 u/L
same,CREATININE,[2],0.37 mg/dL
same,GLUCOSE,[2],164.17 mg/dL
same,LACTATE DEHYDROGENASE,[2],290.67 u/L
same,LIPASE,[2],6.83 u/L
same,PHOSPHORUS,[2],11.5 mg/dL
same,POTASSIUM,[2],6.28 MEQ/L
same,SODIUM,[2],139.5 MEQ/L
same,TOTAL BILIRUBIN,[2],0.13 mg/dL
same,TOTAL PROTEIN,[2],5.55 G/DL
same,URIC ACID,[2],1.12 mg/dL
same,ABSOLUTE BASOPHIL,[3],0 CELLS/uL
same,ABSOLUTE EOSINOPHIL,[3],112 CELLS/uL
same,ABSOLUTE LYMPHOCYTE,[3],12658 CELLS/uL
same,ABSOLUTE MONOCYTE,[3],346 CELLS/uL
same,ABSOLUTE SEGMENTED NEUTROPHIL,[3],1350.67 CELLS/uL
same,BASOPHIL,[3],0%
same,EOSINOPHIL,[3],1%
same,ERYTHROCYTE COUNT,[3],5.67 x10E6/uL
same,HEMATOCRIT,[3],36.5%
same,HEMOGLOBIN,[3],13.83 G/DL
same,LEUKOCYTE COUNT,[3],14.47 x10E3/uL
same,LYMPHOCYTE,[3],87.33%
same,MEAN CORPUSCULAR HEMOGLOBIN,[3],24.43 pg
same,MEAN CORPUSCULAR HEMOGLOBIN CONCENTRATION,[3],37.9 G/DL
same,MEAN CORPUSCULAR VOLUME,[3],64.47 fL
same,MONOCYTE,[3],2.33%
same,NEUTROPHIL,[3],9.33%
same,NUCLEATED RED BLOOD CELLS,[3],0 /100WBC
same,PLATELET COUNT,[3],1151 x10E3/uL
same,ALANINE AMINOTRANSFERASE,[3],33.67 u/L
same,ALBUMIN,[3],3.67 G/DL
same,ALKALINE PHOSPHATASE,[3],715.33 u/L
same,ASPARTATE AMINOTRANSFERASE,[3],58.67 u/L
same,BLOOD UREA NITROGEN,[3],12 mg/dL
same,CARBON DIOXIDE,[3],22 mmol/L
same,CHLORIDE,[3],103.33 MEQ/L
same,CHOLESTEROL,[3],20 mg/dL
same,CREATINE PHOSPHOKINASE,[3],384.33 u/L
same,CREATININE,[3],0.1 mg/dL
same,GLUCOSE,[3],148.33 mg/dL
same,LACTATE DEHYDROGENASE,[3],168.67 u/L
same,LIPASE,[3],8 u/L
same,PHOSPHORUS,[3],10.77 mg/dL
same,POTASSIUM,[3],6.1 MEQ/L
same,SODIUM,[3],141.07 MEQ/L
same,TOTAL BILIRUBIN,[3],0.13 mg/dL
same,TOTAL PROTEIN,[3],5.3 G/DL
same,URIC ACID,[3],1.13 mg/dL
same,ABSOLUTE BASOPHIL,[4],0 CELLS/uL
same,ABSOLUTE EOSINOPHIL,[4],138 CELLS/uL
same,ABSOLUTE LYMPHOCYTE,[4],9196.33 CELLS/uL
same,ABSOLUTE MONOCYTE,[4],408.33 CELLS/uL
same,ABSOLUTE SEGMENTED NEUTROPHIL,[4],1390.67 CELLS/uL
same,BASOPHIL,[4],0%
same,EOSINOPHIL,[4],1%
same,ERYTHROCYTE COUNT,[4],5.71 x10E6/uL
same,HEMATOCRIT,[4],34.9%
same,HEMOGLOBIN,[4],13.2 G/DL
same,LEUKOCYTE COUNT,[4],11.13 x10E3/uL
same,LYMPHOCYTE,[4],83%
same,MEAN CORPUSCULAR HEMOGLOBIN,[4],23.1 pg
same,MEAN CORPUSCULAR HEMOGLOBIN CONCENTRATION,[4],37.83 G/DL
same,MEAN CORPUSCULAR VOLUME,[4],61.17 fL
same,MONOCYTE,[4],3.67%
same,NEUTROPHIL,[4],12.33%
same,NUCLEATED RED BLOOD CELLS,[4],0 /100WBC
same,PLATELET COUNT,[4],1450 x10E3/uL
same,ALANINE AMINOTRANSFERASE,[4],54.67 u/L
same,ALBUMIN,[4],3.87 G/DL
same,ALKALINE PHOSPHATASE,[4],644.33 u/L
same,ASPARTATE AMINOTRANSFERASE,[4],72.67 u/L
same,BLOOD UREA NITROGEN,[4],8.33 mg/dL
same,CARBON DIOXIDE,[4],22.33 mmol/L
same,CHLORIDE,[4],101.33 MEQ/L
same,CHOLESTEROL,[4],17.33 mg/dL
same,CREATINE PHOSPHOKINASE,[4],692.67 u/L
same,CREATININE,[4],0.12 mg/dL
same,GLUCOSE,[4],153.33 mg/dL
same,LACTATE DEHYDROGENASE,[4],158 u/L
same,LIPASE,[4],4.33 u/L
same,PHOSPHORUS,[4],10.27 mg/dL
same,POTASSIUM,[4],5.78 MEQ/L
same,SODIUM,[4],139.87 MEQ/L
same,TOTAL BILIRUBIN,[4],0.23 mg/dL
same,TOTAL PROTEIN,[4],6.07 G/DL
same,URIC ACID,[4],1.63 mg/dL
